The NIST ThermoML archive (doi:10.1016/j.jct.2016.04.001)
± gives the expanded uncertainty stated by the source.

Assays:
[1] = 296 K; 101.33 kPa; Crystal; X-ray diffraction
[2] = molar heat capacity at constant pressure; settings: 101.33 kPa, Crystal, Small sample (50 mg) DSC

Row | SMILES | mass density [1] | molar heat capacity at constant pressure ([2]; 283.15 K) | molar heat capacity at constant pressure ([2]; 288.15 K) | molar heat capacity at constant pressure ([2]; 293.15 K) | molar heat capacity at constant pressure ([2]; 298.15 K) | molar heat capacity at constant pressure ([2]; 303.15 K) | molar heat capacity at constant pressure ([2]; 308.15 K) | molar heat capacity at constant pressure ([2]; 313.15 K) | molar heat capacity at constant pressure ([2]; 318.15 K) | molar heat capacity at constant pressure ([2]; 323.15 K) | molar heat capacity at constant pressure ([2]; 328.15 K) | molar heat capacity at constant pressure ([2]; 333.15 K) | molar heat capacity at constant pressure ([2]; 338.15 K) | molar heat capacity at constant pressure ([2]; 343.15 K) | molar heat capacity at constant pressure ([2]; 348.15 K) | molar heat capacity at constant pressure ([2]; 353.15 K)
1 | CC(C)(C)C(O)/C(=C\c1ccc(Cl)cc1Cl)n1cncn1 (configuration not stated) [Diniconazole] | 1323 ± 7 kg/m3 | 360.4 ± 9.1 J/K/mol | 367.41 ± 9.2 J/K/mol | 374.58 ± 9.4 J/K/mol | 381.72 ± 9.6 J/K/mol | 388.72 ± 9.8 J/K/mol | 395.47 ± 9.9 J/K/mol | 401.89 ± 10 J/K/mol | 407.93 ± 10 J/K/mol | 413.6 ± 10 J/K/mol | 418.9 ± 11 J/K/mol | 423.89 ± 11 J/K/mol | 428.65 ± 11 J/K/mol | 433.27 ± 11 J/K/mol | 437.91 ± 11 J/K/mol | 442.73 ± 11 J/K/mol
2 | CCCCC(O)(Cn1cncn1)c1ccc(Cl)cc1Cl (configuration not stated) | 1331 ± 7 kg/m3 | 342.68 ± 8.7 J/K/mol | 351.02 ± 8.9 J/K/mol | 358.22 ± 9.1 J/K/mol | 364.66 ± 9.2 J/K/mol | 370.65 ± 9.4 J/K/mol | 376.44 ± 9.5 J/K/mol | 382.23 ± 9.7 J/K/mol | 388.15 ± 9.8 J/K/mol | 394.25 ± 10 J/K/mol | 400.53 ± 10 J/K/mol | 406.94 ± 10 J/K/mol | 413.34 ± 10 J/K/mol | 419.55 ± 11 J/K/mol | 425.32 ± 11 J/K/mol | 430.33 ± 11 J/K/mol
